Measurements published in the NIST ThermoML archive (doi:10.1021/je0505366).
± gives the expanded uncertainty stated by the source.

Experiments:
[1] = Liquid; for mass density: 101.33 kPa; for vapor or sublimation pressure: 383.15 K, Ebulliometric method (Recirculating still)
[2] = refractive index (Na D-line) (dimensionless); conditions: 101.33 kPa, Liquid, Standard Abbe refractometry

Compound	mass density ([1]; 293.15 K) [kg/m3]	vapor or sublimation pressure [1] [kPa]	refractive index ([2]; 293.15 K)	also measured
Nc1ccccc1 [aniline]	1021.72 ± 0.18	9.21 ± 0.02	1.5862 ± 0.0007	
NC1CCCCC1 [cyclohexylamine]				mass density ([1]; 303.15 K): 858.2 ± 0.23 kg/m3; refractive index ([2]; 288.15 K): 1.4624 ± 0.0007
CCCCCCCC [octane]		64.09 ± 0.07		mass density ([1]; 298.15 K): 698.49 ± 0.39 kg/m3; refractive index ([2]; 298.15 K): 1.3946 ± 0.0007
Cc1ccccc1 [toluene]	866.78 ± 0.23		1.496 ± 0.0007	
O [water]			1.3336 ± 0.0007	
